Test results reported in ChEMBL document CHEMBL4613296 (ACS Med Chem Lett, 2020).
Activity calls are given as the source filed them. The calls are words filed in the database; no cut-off is given here.

Tests used:
[1] = target: Rhodesain (Trypanosoma brucei rhodesiense) (UniProt Q95PM0); assay: Inhibition of Trypanosoma brucei rhodesain using increasing concentration of Cbz-Phe-Arg-AMC as substrate incubated for 30 mins by fluorometric assay
[2] = system: Trypanosoma brucei brucei; assay: Antitrypanosomal activity against blood stage form of Trypanosoma brucei brucei 449 incubated for 24 hrs by ATPlite assay; assay type: functional, organism-based; conditions: Trypanosoma brucei, 449, 24 h
[3] = target: Rhodesain (Trypanosoma brucei rhodesiense) (UniProt Q95PM0); assay: Inhibition of Trypanosoma brucei rhodesain assessed as combinational index measured at fraction affected value of 0.30 in presence of curcumin using Cbz-Phe-Arg-AMC as substrate incubated for 30 mins by fluorescence based assay
[4] = target: Rhodesain (Trypanosoma brucei rhodesiense) (UniProt Q95PM0); assay: Inhibition of Trypanosoma brucei rhodesain assessed as combinational index measured at fraction affected value of 0.99 in presence of curcumin using Cbz-Phe-Arg-AMC as substrate incubated for 30 mins by fluorescence based assay
[5] = target: Rhodesain (Trypanosoma brucei rhodesiense) (UniProt Q95PM0); assay: Inhibition of Trypanosoma brucei rhodesain assessed as combinational index measured at fraction affected value of 0.20 in presence of curcumin using Cbz-Phe-Arg-AMC as substrate incubated for 30 mins by fluorescence based assay
[6] = target: Rhodesain (Trypanosoma brucei rhodesiense) (UniProt Q95PM0); assay: Inhibition of Trypanosoma brucei rhodesain assessed as combinational index measured at fraction affected value of 0.50 in presence of curcumin using Cbz-Phe-Arg-AMC as substrate incubated for 30 mins by fluorescence based assay
[7] = system: Trypanosoma brucei brucei; assay: Antitrypanosomal activity against blood stage form of Trypanosoma brucei brucei 449 in presence of curcumin incubated for 24 hrs by ATPlite assay; assay type: functional, organism-based; conditions: Trypanosoma brucei, 449, 24 h
[8] = target: Rhodesain (Trypanosoma brucei rhodesiense) (UniProt Q95PM0); assay: Inhibition of Trypanosoma brucei rhodesain assessed as combinational index measured at fraction affected value of 0.70 in presence of curcumin using Cbz-Phe-Arg-AMC as substrate incubated for 30 mins by fluorescence based assay
[9] = target: Rhodesain (Trypanosoma brucei rhodesiense) (UniProt Q95PM0); assay: Inhibition of Trypanosoma brucei rhodesain assessed as combinational index measured at fraction affected value of 0.90 in presence of curcumin using Cbz-Phe-Arg-AMC as substrate incubated for 30 mins by fluorescence based assay
[10] = target: Rhodesain (Trypanosoma brucei rhodesiense) (UniProt Q95PM0); assay: Inhibition of Trypanosoma brucei rhodesain assessed as combinational index measured at fraction affected value of 0.80 in presence of curcumin using Cbz-Phe-Arg-AMC as substrate incubated for 30 mins by fluorescence based assay
[11] = target: Rhodesain (Trypanosoma brucei rhodesiense) (UniProt Q95PM0); assay: Inhibition of Trypanosoma brucei rhodesain assessed as combinational index measured at fraction affected value of 0.40 in presence of curcumin using Cbz-Phe-Arg-AMC as substrate incubated for 30 mins by fluorescence based assay
[12] = target: Rhodesain (Trypanosoma brucei rhodesiense) (UniProt Q95PM0); assay: Inhibition of Trypanosoma brucei rhodesain assessed as combinational index measured at fraction affected value of 0.60 in presence of curcumin using Cbz-Phe-Arg-AMC as substrate incubated for 30 mins by fluorescence based assay
[13] = target: Rhodesain (Trypanosoma brucei rhodesiense, UniProt Q95PM0); assay: Inhibition of Trypanosoma brucei rhodesain in presence of curcumin using Cbz-Phe-Arg-AMC as substrate incubated for 30 mins by fluorometric assay
Rhodesain, sequence (Q95PM0 whole entry): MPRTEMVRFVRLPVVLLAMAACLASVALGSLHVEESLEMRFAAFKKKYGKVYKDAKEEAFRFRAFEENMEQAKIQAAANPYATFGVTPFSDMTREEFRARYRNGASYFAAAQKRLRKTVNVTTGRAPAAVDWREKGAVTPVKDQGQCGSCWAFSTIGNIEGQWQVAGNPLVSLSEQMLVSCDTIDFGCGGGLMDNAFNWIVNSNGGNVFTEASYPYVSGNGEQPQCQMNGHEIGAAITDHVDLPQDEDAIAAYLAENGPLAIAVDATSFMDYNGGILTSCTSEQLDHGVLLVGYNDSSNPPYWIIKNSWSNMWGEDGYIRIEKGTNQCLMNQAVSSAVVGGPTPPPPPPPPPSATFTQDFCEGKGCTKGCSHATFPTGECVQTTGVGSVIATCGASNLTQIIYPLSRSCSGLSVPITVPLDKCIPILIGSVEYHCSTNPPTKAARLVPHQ

[14] = target: Rhodesain (Trypanosoma brucei rhodesiense) (UniProt Q95PM0); assay: Inhibition of Trypanosoma brucei rhodesain assessed as combinational index measured at fraction affected value of 0.10 in presence of curcumin using Cbz-Phe-Arg-AMC as substrate incubated for 30 mins by fluorescence based assay

Rhodesain (Trypanosoma brucei rhodesiense), sequence (Q95PM0 1-450): as the sequence (Q95PM0 whole entry) above

Compound	inhibition [1]	IC50 [2] [µM]	CI [3]	CI [4]	CI [5]	CI [6]	IC50 [7] [µM]	CI [8]	CI [9]	CI [10]	CI [11]	CI [12]	IC50 [13] [µM]	CI [14]
COc1cc(/C=C/C(=O)CC(=O)/C=C/c2ccc(O)c(OC)c2)ccc1O [CURCUMIN]	inactive	3.12	–	–	–	–	–	–	–	–	–	–	–	–
CC(=O)/C=C/[C@H](CCc1ccccc1)NC(=O)[C@H](Cc1ccccc1)NC(=O)OCc1ccccc1	Active	2.33	1.07	0.453	1.16	0.941	4.64	0.83	0.686	0.768	1	0.886	3.05	1.32
